Reference: ChEMBL document CHEMBL2029312, “The antibacterial activity of 4,4'-bipyridinium amphiphiles with conventional, bicephalic and gemini architectures” (Bioorg Med Chem Lett, 2012)

Legend:
[1] = system: Pseudomonas aeruginosa; assay: Antibacterial activity against Pseudomonas aeruginosa Boston 41501 ATCC 27853 after 72 hrs by broth microdilution method; type: functional
[2] = system: Enterococcus faecalis; assay: Antibacterial activity against Enterococcus faecalis ATCC 29212 after 72 hrs by broth microdilution method; type: functional
[3] = system: Staphylococcus aureus; assay: Antibacterial activity against Staphylococcus aureus subsp. aureus ATCC 29213 after 72 hrs by broth microdilution method; type: functional
[4] = system: Escherichia coli; assay: Antibacterial activity against Escherichia coli ATCC 25922 after 72 hrs by broth microdilution method; type: functional
[5] = Solubility of the compound in water; type: physicochemical; conditions: buffer
[6] = system: Enterococcus faecalis; assay: Ratio of benzalkonium chloride MIC to compound MIC for Enterococcus faecalis ATCC 29212; type: functional
[7] = system: Staphylococcus aureus; assay: Ratio of benzalkonium chloride MIC to compound MIC for Staphylococcus aureus subsp. aureus ATCC 29213; type: functional
[8] = system: Pseudomonas aeruginosa; assay: Ratio of benzalkonium chloride MIC to compound MIC for Pseudomonas aeruginosa Boston 41501 ATCC 27853; type: functional
[9] = system: Escherichia coli; assay: Ratio of benzalkonium chloride MIC to compound MIC for Escherichia coli ATCC 25922; type: functional
[10] = Pseudomonas aeruginosa, Boston 41501 ATCC 27853, 72 h, read-out: MIC
[11] = Enterococcus faecalis, ATCC 29212, 72 h, read-out: MIC
[12] = Staphylococcus aureus, ATCC 29213, 72 h, read-out: MIC
[13] = Escherichia coli, ATCC 25922, 72 h, read-out: MIC

Compound | MIC [1] | MIC [2] | MIC [3] | MIC [4] | solubility [5] | MIC [1, 10] | MIC [2, 11] | MIC [3, 12] | MIC [4, 13] | Ratio [6] | Ratio [7] | Ratio [8] | Ratio [9]
CCCCCCCCCC[n+]1ccc(-c2cc[n+](CCCCCCCCCC)cc2)cc1.[Cl-].[Cl-] | 63 µM | 4 µM | 2 µM | 8 µM |  |  |  |  |  |  |  |  | 
CCCCCCCCCC[n+]1ccc(-c2cc[n+](CCCCCCCCCC)cc2)cc1.[I-].[I-] | 63 µM | 4 µM | 2 µM | 8 µM | Insoluble |  |  |  |  |  |  |  | 
CCCCCCCCCCC[n+]1ccc(-c2cc[n+](CCCCCCCCCCC)cc2)cc1.[Cl-].[Cl-] | 8 µM | 2 µM | 2 µM | 2 µM |  |  |  |  |  |  |  |  | 
CCCCCCCCCCC[n+]1ccc(-c2cc[n+](CCCCCCCCCCC)cc2)cc1.[I-].[I-] | 63 µM | 8 µM | 4 µM | 8 µM | Insoluble |  |  |  |  |  |  |  | 
CCCCCCCCCCCC[n+]1ccc(-c2cc[n+](CCCCCCCCCCCC)cc2)cc1.[Cl-].[Cl-] | 16 µM | 4 µM | 2 µM | 4 µM |  |  |  |  |  |  |  |  | 
CCCCCCCCCCCC[n+]1ccc(-c2cc[n+](CCCCCCCCCCCC)cc2)cc1.[I-].[I-] | 31 µM | 16 µM | 8 µM | 16 µM | Insoluble |  |  |  |  |  |  |  | 
CCCCCCCCCCCCCCCC[n+]1ccc(-c2cc[n+](CCCCCCCCCCCCCCCC)cc2)cc1.[Cl-].[Cl-] | >250 µM | >250 µM | >250 µM | >250 µM | Insoluble |  |  |  |  |  |  |  | 
CCCCCCCCCCCCCCCC[n+]1ccc(-c2cc[n+](CCCCCCCCCCCCCCCC)cc2)cc1.[I-].[I-] | >250 µM | >250 µM | >250 µM | >250 µM | Insoluble |  |  |  |  |  |  |  | 
CCCCCCCCCCCC[n+]1ccc(-c2cc[n+](CCCCCCCCCC)cc2)cc1 |  |  |  |  |  | 8 µM | 2 µM | 2 µM | 2 µM |  |  |  | 
CCCCCCCCCCCCCC[n+]1ccc(-c2cc[n+](CCCCCCCC)cc2)cc1 |  |  |  |  |  | 16 µM | 2 µM | 2 µM | 2 µM |  |  |  | 
CCCCCCCCCCCCCCCC[n+]1ccc(-c2cc[n+](CCCCCC)cc2)cc1 |  |  |  |  |  | 31 µM | 8 µM | 2 µM | 8 µM |  |  |  | 
CCCCCCCCCCCCCCCCCC[n+]1ccc(-c2cc[n+](CCCC)cc2)cc1 |  |  |  |  |  | 125 µM | 31 µM | 8 µM | 31 µM |  |  |  | 
CCCCCCCCCCCCCCCCCCCC[n+]1ccc(-c2cc[n+](CC)cc2)cc1 |  |  |  |  |  | > 250 µM | 31 µM | 16 µM | 125 µM |  |  |  | 
CCCCCCCCCCCCCCCCCCCC[n+]1ccc(-c2cc[n+](C)cc2)cc1.[Br-].[I-] |  |  |  |  | Insoluble | > 250 µM | 31 µM | 16 µM | 125 µM |  |  |  | 
CCCCCCCCCCCCCCCCCCCC[n+]1ccc(-c2ccncc2)cc1.[Br-] |  |  |  |  | Insoluble | > 250 µM | > 250 µM | > 250 µM | > 250 µM |  |  |  | 
CCCCCCCCCCCCCCCCCC[n+]1ccc(-c2cc[n+](CC)cc2)cc1 |  |  |  |  |  | 125 µM | 31 µM | 8 µM | 31 µM |  |  |  | 
CCCCCCCCCCCCCCCCCC[n+]1ccc(-c2cc[n+](C)cc2)cc1.[Br-].[I-] |  |  |  |  | Insoluble | 63 µM | 31 µM | 8 µM | 31 µM |  |  |  | 
CCCCCCCCCCCCCCCCCC[n+]1ccc(-c2ccncc2)cc1.[Br-] |  |  |  |  | Insoluble | > 250 µM | 31 µM | 16 µM | > 250 µM |  |  |  | 

Compound | MIC [1] | MIC [2] | MIC [3] | MIC [4] | solubility [5] | MIC [1, 10] | MIC [2, 11] | MIC [3, 12] | MIC [4, 13] | Ratio [6] | Ratio [7] | Ratio [8] | Ratio [9]
CCCCCCCCCCCCCCCC[n+]1ccc(-c2cc[n+](CC)cc2)cc1.[Br-].[Br-] |  |  |  |  | Insoluble | 250 µM | 63 µM | 16 µM | 63 µM |  |  |  | 
CCCCCCCCCCCCCCCC[n+]1ccc(-c2cc[n+](C)cc2)cc1.[Br-].[I-] |  |  |  |  | Insoluble | 125 µM | 31 µM | 4 µM | 31 µM |  |  |  | 
CCCCCCCCCCCCCCCC[n+]1ccc(-c2ccncc2)cc1.[Br-] |  |  |  |  | Insoluble | > 250 µM | 16 µM | 8 µM | 63 µM |  |  |  | 
CCCCCCCCCCCCCC[n+]1ccc(-c2cc[n+](CC)cc2)cc1 |  |  |  |  |  | 250 µM | 31 µM | 8 µM | 63 µM |  |  |  | 
CCCCCCCCCCCCCC[n+]1ccc(-c2cc[n+](C)cc2)cc1.[Br-].[I-] |  |  |  |  | Insoluble | 125 µM | 31 µM | 4 µM | 63 µM |  |  |  | 
CCCCCCCCCCCCCC[n+]1ccc(-c2ccncc2)cc1 |  |  |  |  |  | 125 µM | 16 µM | 8 µM | 31 µM |  |  |  | 
CCCCCCCCCCCC[n+]1ccc(-c2cc[n+](CC)cc2)cc1 |  |  |  |  |  | > 250 µM | 250 µM | 63 µM | 250 µM |  |  |  | 
CCCCCCCCCCCC[n+]1ccc(-c2cc[n+](C)cc2)cc1.[Br-].[I-] |  |  |  |  | Insoluble | 250 µM | 63 µM | 31 µM | 125 µM |  |  |  | 
CCCCCCCCCCCC[n+]1ccc(-c2ccncc2)cc1 |  |  |  |  |  | > 250 µM | 63 µM | 16 µM | 63 µM |  |  |  | 
CCCCCCCCCCCCCCCCCC[n+]1ccc(-c2cc[n+](CCCCCCCCCCCCCCCCCC)cc2)cc1.[Br-].[Br-] |  |  |  |  | Insoluble | > 250 µM | > 250 µM | > 250 µM | > 250 µM |  |  |  | 
CCCCCCCCCCCCCCCC[n+]1ccc(-c2cc[n+](CCCCCCCCCCCCCCCC)cc2)cc1.[Br-].[Br-] |  |  |  |  | Insoluble | > 250 µM | > 250 µM | 250 µM | > 250 µM |  |  |  | 
CCCCCCCCCCCCCC[n+]1ccc(-c2cc[n+](CCCCCCCCCCCCCC)cc2)cc1.[Br-].[Br-] |  |  |  |  | Insoluble | > 250 µM | 31 µM | 16 µM | 250 µM |  |  |  | 
CCCCCCCCCCCCC[n+]1ccc(-c2cc[n+](CCCCCCCCCCCCC)cc2)cc1.[Br-].[Br-] |  |  |  |  | Insoluble | 250 µM | 8 µM | 8 µM | 16 µM |  |  |  | 
CCCCCCCCCCCC[n+]1ccc(-c2cc[n+](CCCCCCCCCCCC)cc2)cc1.[Br-].[Br-] |  | 4 µM | 2 µM | 4 µM |  | 31 µM |  |  |  |  |  |  | 
CCCCCCCCCCC[n+]1ccc(-c2cc[n+](CCCCCCCCCCC)cc2)cc1.[Br-].[Br-] | 16 µM | 2 µM |  | 2 µM |  |  |  | 2 µM |  | 4 | 4 | 4 | 4
CCCCCCCCCC[n+]1ccc(-c2cc[n+](CCCCCCCCCC)cc2)cc1 |  |  |  |  |  | 63 µM | 4 µM | 2 µM | 8 µM |  |  |  | 
CCCCCCCC[n+]1ccc(-c2cc[n+](CCCCCCCC)cc2)cc1 |  |  |  |  |  | > 250 µM | 250 µM | 125 µM | > 250 µM |  |  |  | 
C[n+]1ccc(-c2cc[n+](C)cc2)cc1 |  |  |  |  |  | > 250 µM | > 250 µM | > 250 µM | > 250 µM |  |  |  | 
